Laboratory results taken from ChEMBL document CHEMBL3352420, “Discovery of 2-pyridylureas as glucokinase activators” (J Med Chem, 2014).

Assays:
Hexokinase-4 [1] = target: T1, Hexokinase-4 (Homo sapiens, UniProt P35557); assay: Activation of purified human glucokinase isoform 3 (13 to 466 aa) using 5 mM glucose by spectrophotometry in presence of NAD+ and glucose 6-phosphate dehydrogenase in presence of 4% HSA
T1 sequence (P35557 whole entry): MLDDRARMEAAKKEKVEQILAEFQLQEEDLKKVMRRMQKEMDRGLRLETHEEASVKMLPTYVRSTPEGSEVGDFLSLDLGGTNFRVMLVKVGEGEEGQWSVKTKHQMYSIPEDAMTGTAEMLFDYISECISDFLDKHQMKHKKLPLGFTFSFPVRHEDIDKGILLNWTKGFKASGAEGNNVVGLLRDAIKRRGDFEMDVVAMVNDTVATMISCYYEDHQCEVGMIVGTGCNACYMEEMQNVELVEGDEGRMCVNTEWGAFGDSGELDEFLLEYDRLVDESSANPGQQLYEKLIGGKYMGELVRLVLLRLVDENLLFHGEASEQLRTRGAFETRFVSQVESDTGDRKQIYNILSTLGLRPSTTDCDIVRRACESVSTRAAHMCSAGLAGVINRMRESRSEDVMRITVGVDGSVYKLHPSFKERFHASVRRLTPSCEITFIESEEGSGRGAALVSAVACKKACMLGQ

Hexokinase-4 [2] = target: T1, Hexokinase-4; assay: Activation of purified human glucokinase isoform 3 (13 to 466 aa) using 5 mM glucose by spectrophotometry in presence of NAD+ and glucose 6-phosphate dehydrogenase
[3] = Extraction ratio in mouse liver microsomes at 1 uM up to 20 mins by LC-MS/MS analysis; format: ADME; settings: read-out: ERH
[4] = Extraction ratio in human liver microsomes at 1 uM up to 20 mins by LC-MS/MS analysis; format: ADME; settings: read-out: ERH

## CNC(=O)Nc1ncc(Sc2ccccn2)cc1Oc1cccnc1C
Hexokinase-4 [1]; read-out: EC50
  EC50: 1850 nM
Hexokinase-4 [2]
  EC50: 262 nM
[3]
  hepatic extraction ratio at 20 min, 1 µM: 0.68
[4]
  hepatic extraction ratio at 20 min, 1 µM: 0.37

## CCc1ncccc1Oc1cc(Sc2ccccn2)cnc1NC(=O)NCc1ccc(O)cc1
Hexokinase-4 [1]; read-out: EC50
  EC50: 1530 nM
Hexokinase-4 [2]
  EC50: 172 nM

## CCc1ncccc1Oc1cc(Sc2ccccn2)cnc1NC(=O)NC
Hexokinase-4 [1]; read-out: EC50
  EC50: 231 nM
Hexokinase-4 [2]
  EC50: 88 nM
[3]
  hepatic extraction ratio at 20 min, 1 µM: 0.85
[4]
  hepatic extraction ratio at 20 min, 1 µM: 0.75

## CNC(=O)Nc1ncc(SCc2ccccc2)cc1Oc1cccnc1C
Hexokinase-4 [1]; read-out: EC50
  EC50: 1170 nM
Hexokinase-4 [2]
  EC50: 172 nM
[3]
  hepatic extraction ratio at 20 min, 1 µM: 0.93
[4]
  hepatic extraction ratio at 20 min, 1 µM: 0.93

## CCn1nccc1Oc1cc(Sc2ccccn2)cnc1NC(=O)NC
Hexokinase-4 [1]; read-out: EC50
  EC50: 472 nM
Hexokinase-4 [2]
  EC50: 319 nM
[3]
  hepatic extraction ratio at 20 min, 1 µM: 0.83
[4]
  hepatic extraction ratio at 20 min, 1 µM: 0.45

## CCc1ncccc1Oc1cc(Sc2ccccn2)cnc1NC(=O)NCc1cccc(O)c1
Hexokinase-4 [1]; read-out: EC50
  EC50: 2830 nM
Hexokinase-4 [2]
  EC50: 276 nM

## CCc1ncccc1Oc1cc(Sc2ccccn2)cnc1NC(=O)NC(C)C
Hexokinase-4 [1]
  EC50: Not Active
Hexokinase-4 [2]
  EC50: > 50000 nM

## CNC(=O)Nc1ncc(Sc2ccccn2)cc1Oc1c(C)n[nH]c1C
Hexokinase-4 [1]; read-out: EC50
  EC50: 345 nM
Hexokinase-4 [2]
  EC50: 2240 nM

## CCNC(=O)Nc1ncc(Sc2ccccn2)cc1Oc1cccnc1CC
Hexokinase-4 [1]; read-out: EC50
  EC50: 547 nM
Hexokinase-4 [2]
  EC50: 203 nM

## CCc1ncccc1Oc1cc(Sc2ccccn2)cnc1NC(=O)NCc1cccnc1
Hexokinase-4 [1]; read-out: EC50
  EC50: 1970 nM
Hexokinase-4 [2]
  EC50: 758 nM

## CCc1ncccc1Oc1cc(Sc2ccccn2)cnc1NC=O
Hexokinase-4 [1]; read-out: EC50
  EC50: 41400 nM
Hexokinase-4 [2]
  EC50: 13200 nM

## CCc1ncccc1Oc1cc(Sc2ccccn2)cnc1NC(=O)NCc1ccccc1O
Hexokinase-4 [1]; read-out: EC50
  EC50: 5850 nM
Hexokinase-4 [2]
  EC50: 393 nM

## CCc1ncccc1Oc1cc(Sc2ccccn2)cnc1NC(=O)NCc1ccncc1
Hexokinase-4 [1]; read-out: EC50
  EC50: 1160 nM
Hexokinase-4 [2]
  EC50: 952 nM
